Experiments:
[1] = tested on: phosphorylated Akt at serine 473 (pAKTs473) in primary human lung fibroblasts; test: High throughput phosphorylated Akt (Ser473) in vitro immunoassay (MSD); type: cell-based; conditions: Fibroblast, primary human lung fibroblasts (Lonza), 384-well, compound 1 h, PDGF-BB 10 ng/ml 10 min, read-out: mean pIC50, pAKTser473 high throughput immunoassay (converted)
From the text: Immunoassay to measure effect of test compounds on phosphorylated Akt at serine 473 (pAKTs473) in primary human lung fibroblasts (Lonza Group Ltd, Basel, Switzerland, Catalogue No. CC-2512) using the MesoScale Discovery (MSD) platform to quantify levels of total Akt and pAKTser473.
Human lung fibroblasts were routinely maintained in fibroblast basal medium supplemented with 2% foetal bovine serum (FBS), 0.1% human fibroblast growth factor (FGF)-B, 0.1% insulin, 0.1% GA-100 (Lonza Group Ltd, Basel, Switzerland, Catalogue No. CC-3132) at 37° C. in 5% CO2 according to the manufacturer's protocol.
For the assay, cells were harvested using Trypsin/EDTA, (Lonza Group Ltd, Basel, Switzerland, Catalogue No. CC-5012), at working concentration of 0.025%, resuspended to give 3×10^5 cells/ml and 50 ul/well seeded into 384-well plates (Greiner Group, Kremsmunster, Austria, Catalogue No. 781091) in media containing 0.4% FBS and incubated o/n at 37° C. in 5% CO2.
Test compounds were dissolved in 100% DMSO to give 10 mM stock solutions and serially diluted to generate an 11-point concentration response curve. Compound were further diluted by […] into 384-well V-bottom polypropylene plates (Greiner Group, Kremsmunster, Austria, Catalogue No. 781280) with media containing 0.4% FBS to give 50 µM top compound concentration in 0.5% DMSO.
Compounds were transferred to 384-well plates contacting cells (0.1% DMSO final) and incubated for 1 h at 37° C. in 5% CO2, prior to stimulation with platelet-derived growth factor (PDGF)-BB (R&D Systems, Catalogue No. 220-BB) at 10 ng/ml (final) for 10 min at RT. Cell assay plates were incubated on ice and treated with lysis buffer (Cell Signalling Technology, Catalogue No. 9806) containing protease and phosphatase inhibitors (Thermo Scientific, Catalogue No. 78444) followed by shaking for 30 min at 4° C.
MSD plates (MSD, MA6000 384-well GAR plate, Catalogue No. L21RA-2) were blocked with blocking buffer containing TBS (MSD, Cat. No. R61TX-1) with 0.5% bovine serum albumin (BSA) (Sigma Aldrich, Cat. No. A7906), 0.1% tween-20 (Sigma Aldrich, Catalogue No. P2287) and coated with rabbit-anti-human pAkt (s473) ab (Cell Signalling Technology, Catalogue No. CST #4060) at RT with shaking, followed by washing (×3) with 1×TBS wash reagent containing 0.1% Tween-20. Cell lysates (30 ul) were added and MSD plates centrifuged at 1000 rpm at 4° C. o/n.
Plates were washed with 1×TBS wash buffer (×3), prior to addition of mouse-anti-human-total Akt ab (1 mg/ml) (Upstate (Milipore), Catalogue No. 05-591) in blocking buffer and shaken at RT for 1 h. After washing with 1×TBS wash buffer (×3), plates were incubated with goat-anti-mouse SULFO-TAG detection ab (MSD, Catalogue No. R32AC-1) (1:500 in blocking buffer) for 1 h at RT. Plates were washed with 1×TBS (×3) and read buffer (2×) (MSD, Catalogue No. R92TC-1) added before detecting electrochemiluminescence (MSD Sector Imager 6000).
Data analysis was performed by determining % inhibition values for test compounds relative to the minimum (+PDGF-BB stimulation) and maximum responses (no PDGF-BB stimulation) with non-linear regression analysis to determine IC50 values for test compounds.

[2] = tested on: type I collagen deposition in primary lung fibroblasts derived from human tissue; test: High throughput type I collagen deposition (scar-in-a-jar) high content screening assay; type: cell-based; conditions: Primary lung fibroblast, 72 h, human pulmonary fibroblasts, 384-well, TGF-β 1 ng/ml 72 h, total collagen area, read-out: mean pIC50, high throughput type I collagen deposition (scar-in-a-jar) (converted)
Experimental: Highthroughput, cellular type I collagen deposition was measured by adapting a published method; scar-in-a-jar (Chen et al., 2009) to primary lung fibroblasts derived from human tissue and combining with high content analysis to permit fluorescent quantification of collagen deposited in the extracellular matrix (ECM). The human biological samples were sourced ethically and their research use was in accordance with the terms of the informed consents.
Test compounds were dissolved in 100% DMSO to give 10 mM (stocks) and further diluted to give half log dilutions to generate an 11 point concentration response curve. 1 ul was transferred to 384-well plates (Greiner Group, Kremsmunster, Austria, Catalogue No Greine 781280r).
Human pulmonary fibroblasts were maintained in DMEM media (Gibco, Catalogue No 21969) supplemented with 4 mM L-glutamine (Gibco Catalogue No 25030-024) and 10% heat inactivated FBS (Gibco, Catalogue No 10099-141) at 37° C. in 10% CO2. Cells were harvested and resuspended at 4×10^6 cells/ml in a T175 cell culture flask (BD Falcom, Catalogue No: 353112) containing 50 mL of culture media. After 4 days 37° C. in 10% CO2, cells were harvested and seeded at 4000 cells per well ([…]) into 384-well plates (BD Falcon, Catalogue No 353962Greiner) in assay media (0.4% heat inactivated FBS, 4 mM L-glutamine). Plates were sealed with breathable seals (Sigma, Catalogue No. BEM-1). Assay plates were incubated for 72 h at 37° C. in 10% CO2.
Assay media was supplemented with 112.5 mg/ml Ficoll 70 (Sigma, Catalogue No F2878), 75 mg/ml Ficoll 400 (Sigma, Catalogue No F4375) and 50 µg/ml ascorbic acid (Sigma, Catalogue No A8960). 30 μL assay media were added to 1 l compound ([…] compound concentration in 1% DMSO). Diluted compounds (10 μL) were transferred to plates containing cells and incubated for 3 h at 37° C. in 10% CO2. Transforming growth factor (TGF)-β (R&D systems, Catalogue No 100-B/CF) was reconstituted to give 10 µg/mL (stock) and further diluted in assay media containing Ficoll and ascorbic acid (1 in 3333). TGF-β was added to cell plates (1 ng/ml final) and cells incubated for 72 h at 37° C. in 10% CO2.
Media was aspirated from cells and 30 µL/well 100% ice-cold methanol added and incubated at RT for 5 min to fix cells. Methanol was aspirated and cells washed with PBS (3×). To block and permeabilise, cells were incubated with PBS containing 1% BSA and 0.1% Triton X 100 for 20 min, followed by PBS wash (3×). Cells were incubated with mouse anti human type I collagen monoclonal antibody (Sigma, Catalogue No C2456) diluted 1:1000 in PBS for 24 h at 4° C. Cells were washed with PBS containing 0.1% Tween-20 (3×) and incubated with secondary alexa fluor 488 goat-anti-mouse antibody (Invitrogen, Catalogue No A11001, 1 in 500 in PBS) and Hoechst 33342 (Sigma, Catalogue No H21492), 1 in 1000 in PBS) for 1 h at RT, prior to washing with PBS containing 0.1% Tween (×4).
Type I collagen immunoreactivity was detected using the INCell 2000 Analyzer (GE Healthcare, INcell 2000) set to excitation and emission wavelengths for DAPI and FITC with laser focus and exposure adjusted to appropriate levels. Images were imported and analysed using Columbus software (Perkin Elmer) and computational algorithms to quantify “total collagen area” and “cell count”.
Data analysis was performed by determining 0/inhibition values for test compounds relative to the minimum (media only) and maximum responses (TGF-βstimulation) with non-linear regression analysis to determine IC50 values for test compounds.

mTOR = target: T1, mTOR (Homo sapiens, UniProt P42345); test: mTOR kinobeads competition-binding assay; conditions: HuT-78 cell lysate, bead-immobilized capturing ligand, 2 h at 4° C., mean of multiple experiments; read-out: mean pIC50, mTOR kinobeads assay (converted)
T1 construct: capturing of endogenously expressed target proteins from cell extracts by a bead-immobilized capturing ligand; endogenous in cells; host or cells: HuT-78 cells (ECACC 88041901), cell lysate
Experimental: The affinity of test compounds for mTOR was determined in the mTOR kinobeads assay. This is a competition-binding assay based on the capturing of endogenously expressed target proteins from cell extracts by a bead-immobilized capturing ligand in the presence of the test compound.
HuT-78 cells (European Collection of Authenticated Cell Cultures, 88041901) were cultured according to vendor's instructions. Frozen cell pellets were homogenized in 3× pellet volumes lysis buffer (50 mM Tris-HCl, 0.4% (v/v) Igepal-CA630, 5% glycerol, 150 mM NaCl, 1.5 mM MgCl2, 25 mM NaF, 1 mM sodium vanadate, 1 mM DTT, pH 7.5, supplemented with EDTA-free protease inhibitor tablet (Roche)). The sample was dispersed using a Dounce homogenizer, kept rotating for 30 min at 4° C., and centrifuged for 10 min at 20000 gat 4° C. The supernatant was centrifuged again for 1 h at 145 000 g. The protein concentration was determined by Bradford assay (BioRad), aliquots were snap frozen in liquid nitrogen and stored at −80° C.
The capturing matrices were generated by derivatizing N-hydroxysuccinimide (NHS) activated Sepharose 4 beads (GE Healthcare) with the functionalized ligands Compound A and Compound C at a ligand density of 5 mM. Remaining NHS-groups were blocked with ethanolamine.
For the mTOR kinobeads assay the matrices were combined in a 1:1 ratio and equilibrated in DP buffer (50 mM Tris-HCl (pH 7.5), 0.4% (v/v) Igepal-CA630, 5% (v/v) glycerol, 150 mM NaCl, 1.5 mM MgCl2, 25 mM NaF, 1 mM Na3VO4, 1 mM dithiothreitol). All steps of the mTOR kinobeads assay were performed at 4° C. or on ice. The cell lysate was diluted with DP buffer to a final concentration of 5 mg/ml and a final detergent concentration of 0.4% (v/v) Igepal-CA630. For the assay 250 μg cell lysate and 2.5 μl capturing matrix per well (final assay volume: 75 μl) were incubated in the presence of test compounds in a 384-well filter plate (MultiScreenHTS HV Filter Plate, 0.45 μm, MZHVNOW50, Merck Millipore). Each plate contained 16 positive (100 μM Compound B) and 16 negative (2% v/v DMSO) control wells. Compounds were tested in a concentration-response applying 1:3 or 1:4 dilution steps for in total 11 data points. DMSO concentration was 2% (v/v). After 2 h incubation on an overhead shaker (Roto-Shake Genie, Scientific Industries Inc.) at 4° C. the non-bound fraction was removed by washing the beads with DP buffer. Proteins retained on the beads were eluted in SDS sample buffer (200 mM Tris (pH 7.4), 250 mM Trizma Base, 4% (w/v) SDS, 20% (v/v) glycerol, 0.01% (w/v) bromophenol blue, 50 mM dithiothreitol) into a collection plate (384 well polypropylene microplate, V-shape, Greiner, 781 280). Eluates were spotted on nitrocellulose membranes (400 nl per spot) using an automated pin-tool liquid transfer (Biomek FX, Beckman). After drying, the membranes were rehydrated in 20% (v/v) ethanol and blocked by incubation with Odyssey blocking buffer (LICOR, 927-40000) for 1 h at room temperature. Blocked membranes were incubated overnight at 25° C. with Odyssey blocking buffer supplemented with a specific anti-mTOR antibody (Cell Signaling, 2972; 1:500) and 0.4% TWEEN-20. Then the membranes were washed in PBST buffer and incubated for 60 minutes at room temperature with the detection antibody (IRDye™ labelled antibody from LI-COR) diluted in Odyssey blocking buffer (LICOR 927-40000) containing 0.2% TWEEN-20. Then the membranes were washed with PBST and finally rinsed twice with PBS buffer to remove residual Tween-20. The membranes were then scanned with the Odyssey® Infrared Imaging System (LI-COR Biosciences). Fluorescence signals were recorded and analyzed according to the instructions of the manufacturer. Concentration response curves were computed with the software Activity Base. All data were normalized to the mean of 16 high (negative control) and 16 low (positive control) control wells on each plate. […]

IC50 (mTOR) | SMILES | IC50 [1] | IC50 [2]
– | CC[C@H]1COCCN1c1cc(CS(C)(=O)=O)cc(-c2ccc3[nH]c(C)cc3n2)n1 [Example 22, (S)-3-ethyl-4-(6-(2-methyl-1H-pyrrolo[3,2-b]pyridin-5-yl)-4-((methylsulfonyl)methyl)pyridin-2-yl)morpholine] | 2.51 to 25.1 nM | 20 to 3160 nM
– | CC[C@H]1COCCN1c1cc(C2(S(C)(=O)=O)CCOCC2)cc(-c2ccc3[nH]c(C)cc3n2)n1 [Example 21, (S)-3-ethyl-4-(6-(2-methyl-1H-pyrrolo[3,2-b]pyridin-5-yl)-4-(4-(methylsulfonyl)tetra-hydro-2H-pyran-4-yl)pyridin-2-yl)morpholine] | 2.51 to 25.1 nM | 20 to 3160 nM
1260 nM | CC[C@@H]1COCC(=O)N1c1cc(CS(C)(=O)=O)cc(-c2ccc3[nH]c(CNC)cc3n2)n1 [Example 34, (R)-5-ethyl-4-(6-(2-((methylamino)methyl)-1H-pyrrolo[3,2-b]pyridin-5-yl)-4-((methylsulfonyl)methyl)pyridin-2-yl)morpholin-3-one] | 7940 nM | –

Source: patent US20220306623A1, “PYRIDYL OR PYRIMIDYL MTOR KINASE INHIBITORS” (GLAXOSMITHKLINE INTELLECTUAL PROPERTY DEVELOPMENT LIMITED, priority 2019, published 2022)
